The source of these data is PubChem BioAssay (NCI).

What all share (assay): DTP human tumour cell line panel, 48 h
The test system of assay [1] is HOP-18 NSCLC.
For assay [2], the system named is XF 498 CNS.
Assay [3] relates to DMS 273 small cell lung.
The test system of assay [4] is SNB-78 CNS.
The test system of assay [5] is LXFL 529 NSCLC.
For assay [6], the system named is DMS 114 small cell lung.
Assay [7] deals with RXF-631 renal.
In assay [8] the test system is M19-MEL melanoma.
Assay [9] concerns KM20L2 colon.
The subject of assay [10] is SN12K1 renal.

Where “and” joins values, the source holds several entries; their conditions need not be identical. Equal values may be shown once.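 All cell lines were grown in 96-well plates and treated with compound for 48 hours. The concentration for 50% growth inhibition is given as GI50. TGI: total growth inhibition.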

As usually defined, the TGI is the concentration at which net growth stops. A low value points to more potent growth arrest. What is called GI50 is the concentration that inhibits growth by half.

`CC12CC(Sc3ccccc3N1)c1ccccc1O2` (configuration not stated): the total growth inhibition concentration (TGI) worked out at 31.6 µM in assay [1]; 30.2 µM in [2]; 30.2 µM in assay [3]; 42.6 µM in [4]; 28.4 µM in assay [5]; 29 µM in assay [6]. Further, the total growth inhibition concentration (TGI) in assay [7] turned out to be 28.4 µM; in [8], 30.9 µM; in [9], 34.6 µM.
On to `C[C@@](O)(/C=C/[C@H]1CC=CC(=O)O1)[C@@H](C[C@@H](O)\C=C/C=C\C=C\CO)OP(=O)(O)O`, for which the GI50 in assay [1] was 15.9 µM and 42.2 µM; in assay [4], 11.3 µM; in assay [9], 1.32 µM; in assay [10], 2.69 µM. In addition, the TGI in assay [1] was 28.5 µM and 127 µM; in [2], 101 µM and 113 µM; in assay [3] it was 167 µM; in [4], 60.8 µM and > 58.8 µM; in assay [6] it was 82.6 µM; in assay [8], 25.6 µM. The total growth inhibition concentration (TGI) was 6.55 µM and 3.17 µM in assay [9]; 30.7 µM and 19.3 µM in [10].
For `CCOP(=O)(CC(=O)C1=C(O)C(CCCCNC(=O)OC(C)(C)C)N(Cc2ccccc2)C1=O)OCC` (configuration not stated), the concentration for total growth inhibition (TGI) in [1], in [3], in [5], in assay [6], in [8] and in assay [9] was greater than 100 µM each time.
On to `Cc1cnc(SCCN2CCN(C)CC2)nc1-c1cc2ccccc2s1`, for which the TGI in assay [3] turned out to be 18.1 µM; in [4], 32.5 µM; in assay [5], 27 µM; in assay [6], 20.5 µM.
In the case of `Brc1ccc(C2SCc3nc4ccccc4n32)cc1` (configuration not stated), the TGI in [1] came out at 78.5 µM; in assay [2] it was 24.5 µM; in assay [4], 22.5 µM; in assay [5] it was 22.2 µM; in assay [8], 27 µM.
In the case of `O=C(CC1C(=O)Nc2ccccc2S1(=O)=O)Nc1cccc(Cl)c1` (configuration not stated), the TGI in assay [2] was 41.5 µM; in [3], 29.4 µM; in assay [4], greater than 100 µM; in [5] it was 38.3 µM; in [6] it was 30.6 µM; in [7], 45.3 µM. The concentration for total growth inhibition (TGI) in assay [8] is 34.8 µM; in assay [9], 42.3 µM.
With `Cc1ccc(S(=O)(=O)SCc2ccccc2)cc1`, the total growth inhibition concentration (TGI) in assay [1] is greater than 100 µM; in assay [2], 95.2 µM; in [3], greater than 69.5 µM; in assay [4], 30 µM; in assay [5], 47.4 µM; in assay [6], 47.8 µM. The total growth inhibition concentration (TGI) in assay [8] is greater than 77.4 µM; in assay [9], 43.9 µM.
Turning to `CN1C(=O)C(=CN(C)c2ccccc2)C(=O)N(C)C1=O`, the TGI in assay [1], in assay [2], in assay [3], in [4], in [5] and in [6] was greater than 100 µM throughout. For the same molecule, the total growth inhibition concentration (TGI) in assay [8] and in [9] was greater than 100 µM each time.
As for `COC(=O)C(=O)C(CC(=O)Nc1cccc(C(F)(F)F)c1)C(=O)OC` (configuration not stated), the TGI in assay [4], in [5], in assay [6], in [8] and in [9] was greater than 100 µM in each case.
In the case of `CCN(CC)CCC(=O)/C=C/c1ccc(C)cc1`, the total growth inhibition concentration (TGI) in assay [1] is 31.5 µM; in [2], 25.1 µM; in [3], 25.5 µM; in assay [4] it was 79.3 µM; in assay [5] it was 20.6 µM; in assay [6] it was 24.4 µM. Moreover, the concentration for total growth inhibition (TGI) in assay [7] came to 35.1 µM; in assay [8], 25.4 µM; in assay [9], 30 µM.
For the molecule `O=C(NC(=O)c1cc2cc(Br)cc(Br)c2oc1=O)Oc1ccccc1`, the TGI in assay [1], in assay [2], in assay [3], in assay [4], in assay [5] and in assay [6] was greater than 100 µM in each case. For the same molecule, the TGI in assay [8] and in [9] was greater than 100 µM in each case.
Turning to `CC(C)(C)N=CN(C=C(c1ccccc1)c1ccccc1)C1CCCCC1`, the concentration for total growth inhibition (TGI) was greater than 100 µM in assay [1]; 56.8 µM in assay [2]; greater than 100 µM in [3]; greater than 100 µM in assay [4]; 55.3 µM in [6]; greater than 100 µM in [8]. For the same molecule, the TGI in assay [9] turned out to be 46.7 µM.
Turning to `O=C1N[C@H]2[C@H](O)[C@H](O)[C@@H](O)[C@H](O)[C@@H]2c2cc3c(c(O)c21)OCO3`, the GI50 in assay [1] was 0.377 µM and 1.99 µM; in [2], 0.25 µM and 1.24 µM; in assay [3], 3.09 µM; in assay [4] it was 0.248 µM and 2.04 µM; in assay [5], 0.248 µM; in assay [6], 0.241 µM and 0.604 µM. Besides, the concentration for 50% growth inhibition (GI50) in assay [7] was 0.288 µM; in assay [8], 0.276 µM and 0.463 µM; in assay [9], 0.35 µM and 1.76 µM. Moreover, the TGI is 0.653 µM in assay [1]; 0.466 µM in [3]; 4.13 µM in assay [5]; 4.33 µM in [7]; 3.06 µM in assay [9]; 0.36 µM in [10].
Take `COc1cc2ccc(CC(N)=O)cc2cc1OC`: the TGI in assay [1], in [2], in assay [3], in [4], in assay [5] and in assay [6] was greater than 100 µM throughout. Besides, the total growth inhibition concentration (TGI) in [7], in [8] and in assay [9] was greater than 100 µM throughout.
On to `C/C=C1\CCC2c3[nH]c4ccccc4c3CCN2C1` (configuration not stated), for which the concentration for total growth inhibition (TGI) in assay [2], in assay [3], in assay [4], in assay [5], in assay [6] and in assay [8] was greater than 100 µM in each case. Besides, in assay [9], the TGI was greater than 100 µM.
As for `O=C1c2c(c3c4ccccc4[nH]c3c3[nH]c4ccccc4c23)C(=O)N1Cc1ccccc1`, the TGI in assay [3] turned out to be 6.74 µM; in assay [4] it was 9.63 µM; in [5] it was 11.4 µM; in assay [6], 8.92 µM; in assay [7] it was 6.53 µM; in assay [8] it was 12.9 µM. The molecule also displayed a concentration for total growth inhibition (TGI) in assay [9] of 8.57 µM.
Consider `COc1cc2c(cc1OC)[C@@H]([C@H](O)c1ccccc1)NCC2`, for which the TGI in [1], in assay [2], in assay [3], in assay [4], in assay [5] and in assay [6] was greater than 100 µM in each case. Further, the total growth inhibition concentration (TGI) in assay [7], in assay [8] and in assay [9] was greater than 100 µM throughout.
Consider `Clc1ccc(C2=NOC3C4CCC(C4)C23)cc1` (configuration not stated), for which the TGI in assay [1], in assay [3], in assay [4], in [5] and in [8] was greater than 100 µM each time.
In the case of `O=C1CCC2(c3ccccc3)Nc3ccc(Cl)cc3N12` (configuration not stated), the TGI in [2], in [4], in assay [5], in assay [6], in assay [7] and in assay [8] was greater than 100 µM in each case. This molecule also showed a total growth inhibition concentration (TGI) in assay [9] greater than 100 µM.
As to `O=C(Sc1sc(=S)sc1SC(=O)c1ccccc1)c1ccccc1`, the TGI in [1], in [2], in assay [3], in [4], in assay [5] and in [6] was greater than 100 µM throughout. The TGI in assay [8] is 51 µM; in assay [9], greater than 100 µM.
`Cc1cc2c(=O)cc(-c3ccc(F)cc3)oc2c(C(=O)O)c1C`: the TGI in assay [1], in assay [2], in assay [3], in assay [4], in [5] and in [6] was greater than 100 µM throughout. Also, the total growth inhibition concentration (TGI) in assay [7], in assay [8] and in assay [9] was greater than 100 µM each time.
On to `Cc1ccc2c(CC(=O)O)cc(=O)oc2c1`, for which the TGI in assay [1] was greater than 100 µM; in [2], 9.18 µM; in assay [3], greater than 100 µM; in assay [5], greater than 100 µM; in assay [6], greater than 100 µM; in assay [8], greater than 100 µM. In addition, the TGI in [9] was greater than 100 µM.
